Experimental data published in patent US20170114128A1, “USE OF TGF-BETA ANTAGONISTS OF TREAT TYPE-2 DIABETES” (ALBERT EINSTEIN COLLEGE OF MEDICINE, INC., priority 2014, published 2017).

Tested on: normal C57BL/6 mice
Test: Intra-third ventricle injection of TGF-β1, GTT, ITT, food intake and body weight
Format: in vivo
Experimental: Brain TGF-β excess impairs glucose tolerance: To study the metabolic effects of brain TGF-β excess, a pharmacological approach was first used by which TGF-β was delivered into the hypothalamic third ventricle of normal C57BL/6 mice via pre-implanted cannula. To optimize the dosage, different doses of TGF-β1 (0, 0.5, 1.0, and 4.0 ng) were injected, and TGF-β1 concentrations measured in the CSF at various time points post-injection. […] Based on this condition, overnight-fasted mice were given intra-third ventricle injections of TGF-β1 in these doses, one injection at night after food was removed, and the second injection in the following morning at 4 hours prior to glucose tolerance test (GTT). […] In sum, a pharmacological induction of brain TGF-β excess can acutely cause pre-diabetic changes including glucose intolerance and insulin resistance.
Animals. Tgfb1^lox/lox mice, Tgfbr2^lox/lox mice, Tgfb1^+/− mice, GFAP-Cre mice, and T1r4^−/− mice on C57BL/6 were obtained from Jackson (32,56-59) and continued to be maintained on C57BL/6. CMV-lox-stop-lox-Tgfb1 mice(30) obtained from Jackson were backcrossed into C57BL/6. POMC-Cre mice maintained on C57BL/6 were used in our previous research (20,60). All mice were housed in standard, pathogen-free animal facility with 12 h/12 h light and darkness cycles, and adult male mice were used in experiments of this work. Mice were maintained on normal chow since weaning, and for some experiments involving HFD feeding, a HFD (45% kcal fat, Research Diets, Inc.) was used when mice were two to three months old. Food intake and body weight of mice were measured using a laboratory scale. GTT was performed in mice through intraperitoneal (i.p.) injection of glucose at 2 g/kg body weight. ITT was performed in mice through i.p. injection of human recombinant insulin (Nova Nordisk) at the dose of 0.7 U/kg body weight. Blood glucose levels during GTT and ITT were measured with LifeScan® blood glucose monitoring system. All procedures were approved by the Institutional Animal Care and Use Committee of Albert Einstein College of Medicine.
Brain injection. […]

With “TGF-β1: transforming growth factor-β1 (Sigma), cytokine dissolved in artificial cerebrospinal fluid for third-ventricle injection” the “glucose intolerance effect, comparison of doses” value (4 ng) was “slightly strongest”, the “sensitivity of insulin in lowing blood glucose (ITT)” value (4 ng, third ventricle) was “significantly dampened” and the “glucose tolerance in GTT” value (each dose (0.5, 1.0, 4.0 ng), two intra-third ventricle injections, overnight-fasted) was “led to glucose intolerance”.
